pIC50: −log10 of the molar value.
Experiments:
Format in all cases: physicochemical
[1] = Antioxidant activity assessed as ABTS radical scavenging activity at 50 uM by spectrophotometry relative to control
[2] = Antioxidant activity assessed as ABTS radical scavenging activity at 500 uM by spectrophotometry relative to control
[3] = Antioxidant activity assessed as ABTS radical scavenging activity at 10 uM by spectrophotometry relative to control
[4] = Antioxidant activity assessed as DPPH radical scavenging activity at 500 uM by spectrophotometry relative to control
[5] = Antioxidant activity assessed as DPPH radical scavenging activity at 10 uM by spectrophotometry relative to control
[6] = Antioxidant activity assessed as ABTS radical scavenging activity at 25 uM by spectrophotometry relative to control
[7] = Antioxidant activity assessed as inhibition of Fe2+/ascorbic acid-induced linoleic acid peroxidation at 5 uM by spectrophotometry relative to control; parameters: scale not given: the % may be the effect or the level left
[8] = Antioxidant activity assessed as […] scavenging activity by measuring NaNO2 at 500 uM by spectrophotometry
[9] = Antioxidant activity assessed as […] scavenging activity by measuring NaNO2 at 10 uM by spectrophotometry
[10] = Antioxidant activity assessed as inhibition of Fe2+/ascorbic acid-induced linoleic acid peroxidation at 50 uM by spectrophotometry relative to control; parameters: scale not given: the % may be the effect or the level left
[11] = Antioxidant activity assessed as DPPH radical scavenging activity at 100 uM by spectrophotometry relative to control
[12] = Antioxidant activity assessed as DPPH radical scavenging activity at 50 uM by spectrophotometry relative to control
[13] = Antioxidant activity assessed as inhibition of Fe2+/ascorbic acid-induced linoleic acid peroxidation at 500 uM by spectrophotometry relative to control; parameters: scale not given: the % may be the effect or the level left
[14] = Antioxidant activity assessed as ferric ion reducing activity at 10 to 500 uM after 40 mins by spectrophotometry relative to control
[15] = Antioxidant activity assessed as ABTS radical scavenging activity at 100 uM by spectrophotometry relative to control
[16] = Antioxidant activity assessed as inhibition of Fe2+/ascorbic acid-induced linoleic acid peroxidation at 100 uM by spectrophotometry relative to control; parameters: scale not given: the % may be the effect or the level left
[17] = Antioxidant activity assessed as hydroxyl radical scavenging activity
[18] = Antioxidant activity assessed as […] scavenging activity by measuring NaNO2 at 100 uM by spectrophotometry
[19] = Antioxidant activity assessed as […] scavenging activity by measuring NaNO2 at 50 uM by spectrophotometry
[20] = Antioxidant activity assessed as inhibition of Fe2+/ascorbic acid-induced linoleic acid peroxidation at 10 uM by spectrophotometry relative to control; parameters: scale not given: the % may be the effect or the level left
[21] = Antioxidant activity assessed as inhibition of Fe2+/ascorbic acid-induced linoleic acid peroxidation at 1 uM by spectrophotometry relative to control; parameters: scale not given: the % may be the effect or the level left
[22] = Antioxidant activity assessed as DPPH radical scavenging activity by spectrophotometry relative to control
[23] = Antioxidant activity assessed as ABTS radical scavenging activity at 5 uM by spectrophotometry relative to control
[24] = Antioxidant activity assessed as ABTS radical scavenging activity by spectrophotometry relative to control
[25] = Antioxidant activity assessed as superoxide dismutase-like activity
[26] = Antioxidant activity assessed as ABTS radical scavenging activity at 1 uM by spectrophotometry relative to control
[27] = Antioxidant activity assessed as inhibition of Fe2+/ascorbic acid-induced linoleic acid peroxidation by spectrophotometry relative to control

## CC1(C)OCC(CO)O1 (stereo not given)
[1]
  Activity: 0.85%
[2]
  Activity: 9.84%
[3]
  Activity: 0%
[4]
  Activity: 0.98%
[5]
  Activity: 0.54%
[6]
  Activity: 0%
[7]
  Activity: 66.2%
[8]
  Activity: 54.47 µM
[9]
  Activity: 56.6 µM
[10]
  Activity: 72.35%
[11]
  Activity: 0.98%
[12]
  Activity: 0.98%
[13]
  Activity: 76.4%
[14]
  Activity: Not Active
[15]
  Activity: 1.7%
[16]
  Activity: 72.48%
[17]
  Activity: Not Active
[18]
  Activity: 52.22 µM
[19]
  Activity: 55.45 µM
[20]
  Activity: 79.89%
[21]
  Activity: 72.67%

## CC1(C)OCC(CSc2ccccc2)O1 (stereo not given)
[1]
  Activity: 0.15%
[2]
  Activity: 0.08%
[3]
  Activity: 0.47%
[4]
  Activity: 1.65%
[5]
  Activity: 0.01%
[6]
  Activity: 0%
[7]
  Activity: 87.79%
[8]
  Activity: 49.68 µM
[9]
  Activity: 49.59 µM
[10]
  Activity: 76.51%
[11]
  Activity: 0.5%
[12]
  Activity: 1.07%
[13]
  Activity: 72.46%
[14]
  Activity: Not Active
[15]
  Activity: 0.36%
[16]
  Activity: 74.88%
[17]
  Activity: Not Active
[18]
  Activity: 50.48 µM
[19]
  Activity: 50.91 µM
[20]
  Activity: 76.51%
[21]
  Activity: 86.7%

## CC1(C)OCC(C[Se]c2ccccc2)O1 (stereo not given)
[1]
  Activity: 1.19%
[2]
  Activity: 4.75%
[3]
  Activity: 0%
[4]
  Activity: 1.3%
[5]
  Activity: 0.98%
[6]
  Activity: 0%
[7]
  Activity: 94.34%
[8]
  Activity: 49.65 µM
[9]
  Activity: 54.43 µM
[10]
  Activity: 89.97%
[11]
  Activity: 0.63%
[12]
  Activity: 0.63%
[13]
  Activity: 81.22%
[14]
  Activity: Not Active
[15]
  Activity: 1.15%
[16]
  Activity: 86.55%
[17]
  Activity: Not Active
[18]
  Activity: 51.95 µM
[19]
  Activity: 52.5 µM
[20]
  Activity: 86.97%
[21]
  Activity: 88.37%

## CC1(C)OCC(C[Te]c2ccccc2)O1 (stereo not given)
[1]
  Activity: 90.64%
[2]
  Activity: 99.9%
[3]
  Activity: 22.72%
[22]
  pIC50: 3.51
[4]
  Activity: 77.86%
[23]
  Activity: 12.04%
[24]
  pIC50: 4.61
[5]
  Activity: 3.57%
[6]
  Activity: 53.41%
[7]
  Activity: 66.29%
[25]
  Activity: Not Active
[8]
  Activity: 44.49 µM
[9]
  Activity: 64.13 µM
[10]
  Activity: 43.34%
[11]
  Activity: 22.55%
[12]
  Activity: 11.08%
[26]
  Activity: 2.18%
[13]
  Activity: 20.6%
[14]
  Activity: Active
[15]
  Activity: 99.5%
[16]
  Activity: 31.66%
[17]
  Activity: Not Active
[18]
  Activity: 54.93 µM
[19]
  Activity: 55.95 µM
[20]
  Activity: 57.39%
[27]
  pIC50: 4.61
[21]
  Activity: 79.46%

— ChEMBL document CHEMBL3351647, “Organochalcogen compounds from glycerol: synthesis of new antioxidants” (Bioorg Med Chem, 2014)
